From ChEMBL document CHEMBL3885881, “DrugMatrix”

Species on record: Rattus norvegicus
Experiment: DrugMatrix - Regimen: Daily Repeat
Assay type: toxicity, organism-based, Sprague-Dawley
Set-up: regimen Daily Repeat, gender Male, age 6-8 weeks
Conditions: in vivo, po, route oral GAVAGE, vehicle .5 % CMC; for ABSOLUTE BASOPHIL / ABSOLUTE EOSINOPHIL / ABSOLUTE LYMPHOCYTE / ABSOLUTE MONOCYTE / ABSOLUTE SEGMENTED NEUTROPHIL / BASOPHIL / EOSINOPHIL / ERYTHROCYTE COUNT / HEMATOCRIT / HEMOGLOBIN / LEUKOCYTE COUNT / LYMPHOCYTE / MEAN CORPUSCULAR HEMOGLOBIN / MEAN CORPUSCULAR HEMOGLOBIN CONCENTRATION / MEAN CORPUSCULAR VOLUME / MONOCYTE / NEUTROPHIL / NUCLEATED RED BLOOD CELLS / PLATELET COUNT: tissue Blood; for ALANINE AMINOTRANSFERASE / ALBUMIN / ALKALINE PHOSPHATASE / ASPARTATE AMINOTRANSFERASE / BLOOD UREA NITROGEN / CARBON DIOXIDE / CHLORIDE / CHOLESTEROL / CREATINE PHOSPHOKINASE / CREATININE / GLUCOSE / LACTATE DEHYDROGENASE / LIPASE / PHOSPHORUS / POTASSIUM / SODIUM / TOTAL BILIRUBIN / TOTAL PROTEIN / URIC ACID: tissue Plasma
[1] = 25 mg/kg, 120 h, dose level Low, time 5 day
[2] = 1400 mg/kg, 72 h, dose level High, time 3 day
[3] = 1400 mg/kg, 120 h, dose level High, time 5 day

Compound: C[C@](O)(CS(=O)(=O)c1ccc(F)cc1)C(=O)Nc1ccc(C#N)c(C(F)(F)F)c1 [(R)-BICALUTAMIDE]
- ABSOLUTE BASOPHIL [1]: 0 CELLS/uL
- ABSOLUTE EOSINOPHIL [1]: 40.67 CELLS/uL
- ABSOLUTE LYMPHOCYTE [1]: 7260.33 CELLS/uL
- ABSOLUTE MONOCYTE [1]: 84 CELLS/uL
- ABSOLUTE SEGMENTED NEUTROPHIL [1]: 381.67 CELLS/uL
- BASOPHIL [1]: 0%
- EOSINOPHIL [1]: 0.67%
- ERYTHROCYTE COUNT [1]: 5.41 x10E6/uL
- HEMATOCRIT [1]: 34.23%
- HEMOGLOBIN [1]: 13.2 G/DL
- LEUKOCYTE COUNT [1]: 7.77 x10E3/uL
- LYMPHOCYTE [1]: 92.33%
- MEAN CORPUSCULAR HEMOGLOBIN [1]: 24.4 pg
- MEAN CORPUSCULAR HEMOGLOBIN CONCENTRATION [1]: 38.6 G/DL
- MEAN CORPUSCULAR VOLUME [1]: 63.13 fL
- MONOCYTE [1]: 1.33%
- NEUTROPHIL [1]: 5.67%
- NUCLEATED RED BLOOD CELLS [1]: 0 /100WBC
- PLATELET COUNT [1]: 1128.67 x10E3/uL
- ALANINE AMINOTRANSFERASE [1]: 51.67 u/L
- ALBUMIN [1]: 4.37 G/DL
- ALKALINE PHOSPHATASE [1]: 358.33 u/L
- ASPARTATE AMINOTRANSFERASE [1]: 82.33 u/L
- BLOOD UREA NITROGEN [1]: 14.67 mg/dL
- CARBON DIOXIDE [1]: 26.67 mmol/L
- CHLORIDE [1]: 103.67 MEQ/L
- CHOLESTEROL [1]: 67.33 mg/dL
- CREATINE PHOSPHOKINASE [1]: 179.33 u/L
- CREATININE [1]: 0.2 mg/dL
- GLUCOSE [1]: 149.33 mg/dL
- LACTATE DEHYDROGENASE [1]: 119.67 u/L
- LIPASE [1]: 10 u/L
- PHOSPHORUS [1]: 11.83 mg/dL
- POTASSIUM [1]: 6.23 MEQ/L
- SODIUM [1]: 148.07 MEQ/L
- TOTAL BILIRUBIN [1]: 0.2 mg/dL
- TOTAL PROTEIN [1]: 6.5 G/DL
- URIC ACID [1]: 1.37 mg/dL
- ABSOLUTE BASOPHIL [2]: 0 CELLS/uL
- ABSOLUTE EOSINOPHIL [2]: 0 CELLS/uL
- ABSOLUTE LYMPHOCYTE [2]: 11798 CELLS/uL
- ABSOLUTE MONOCYTE [2]: 169.33 CELLS/uL
- ABSOLUTE SEGMENTED NEUTROPHIL [2]: 799.33 CELLS/uL
- BASOPHIL [2]: 0%
- EOSINOPHIL [2]: 0%
- ERYTHROCYTE COUNT [2]: 5.52 x10E6/uL
- HEMATOCRIT [2]: 36.3%
- HEMOGLOBIN [2]: 14.03 G/DL
- LEUKOCYTE COUNT [2]: 12.77 x10E3/uL
- LYMPHOCYTE [2]: 92.67%
- MEAN CORPUSCULAR HEMOGLOBIN [2]: 25.5 pg
- MEAN CORPUSCULAR HEMOGLOBIN CONCENTRATION [2]: 38.63 G/DL
- MEAN CORPUSCULAR VOLUME [2]: 65.97 fL
- MONOCYTE [2]: 1.33%
- NEUTROPHIL [2]: 6%
- NUCLEATED RED BLOOD CELLS [2]: 0 /100WBC
- PLATELET COUNT [2]: 1068 x10E3/uL
- ALANINE AMINOTRANSFERASE [2]: 48.67 u/L
- ALBUMIN [2]: 4.33 G/DL
- ALKALINE PHOSPHATASE [2]: 367.67 u/L
- ASPARTATE AMINOTRANSFERASE [2]: 67 u/L
- BLOOD UREA NITROGEN [2]: 16.67 mg/dL
- CARBON DIOXIDE [2]: 23 mmol/L
- CHLORIDE [2]: 102 MEQ/L
- CHOLESTEROL [2]: 87.33 mg/dL
- CREATINE PHOSPHOKINASE [2]: 182.33 u/L
- CREATININE [2]: 0.19 mg/dL
- GLUCOSE [2]: 155.33 mg/dL
- LACTATE DEHYDROGENASE [2]: 84.67 u/L
- LIPASE [2]: 11 u/L
- PHOSPHORUS [2]: 11.8 mg/dL
- POTASSIUM [2]: 7.17 MEQ/L
- SODIUM [2]: 143.37 MEQ/L
- TOTAL BILIRUBIN [2]: 0.2 mg/dL
- TOTAL PROTEIN [2]: 6.23 G/DL
- URIC ACID [2]: 1.57 mg/dL
- ABSOLUTE BASOPHIL [3]: 0 CELLS/uL
- ABSOLUTE EOSINOPHIL [3]: 139 CELLS/uL
- ABSOLUTE LYMPHOCYTE [3]: 14390.33 CELLS/uL
- ABSOLUTE MONOCYTE [3]: 36 CELLS/uL
- ABSOLUTE SEGMENTED NEUTROPHIL [3]: 934.67 CELLS/uL
- BASOPHIL [3]: 0%
- EOSINOPHIL [3]: 1%
- ERYTHROCYTE COUNT [3]: 5.54 x10E6/uL
- HEMATOCRIT [3]: 34.93%
- HEMOGLOBIN [3]: 13.77 G/DL
- LEUKOCYTE COUNT [3]: 15.5 x10E3/uL
- LYMPHOCYTE [3]: 92.67%
- MEAN CORPUSCULAR HEMOGLOBIN [3]: 24.87 pg
- MEAN CORPUSCULAR HEMOGLOBIN CONCENTRATION [3]: 39.4 G/DL
- MEAN CORPUSCULAR VOLUME [3]: 63.03 fL
- MONOCYTE [3]: 0.33%
- NEUTROPHIL [3]: 6%
- NUCLEATED RED BLOOD CELLS [3]: 0.33 /100WBC
- PLATELET COUNT [3]: 1189.67 x10E3/uL
- ALANINE AMINOTRANSFERASE [3]: 51.33 u/L
- ALBUMIN [3]: 4.37 G/DL
- ALKALINE PHOSPHATASE [3]: 367.67 u/L
- ASPARTATE AMINOTRANSFERASE [3]: 74.33 u/L
- BLOOD UREA NITROGEN [3]: 16.67 mg/dL
- CARBON DIOXIDE [3]: 27.33 mmol/L
- CHLORIDE [3]: 102 MEQ/L
- CHOLESTEROL [3]: 87.67 mg/dL
- CREATINE PHOSPHOKINASE [3]: 121.67 u/L
- CREATININE [3]: 0.22 mg/dL
- GLUCOSE [3]: 150.33 mg/dL
- LACTATE DEHYDROGENASE [3]: 70.67 u/L
- LIPASE [3]: 10 u/L
- PHOSPHORUS [3]: 12.73 mg/dL
- POTASSIUM [3]: 6.81 MEQ/L
- SODIUM [3]: 146.27 MEQ/L
- TOTAL BILIRUBIN [3]: 0.2 mg/dL
- TOTAL PROTEIN [3]: 6.3 G/DL
- URIC ACID [3]: 1.8 mg/dL
